The results in this text go back to US9809623B2, “α4β7 peptide monomer and dimer antagonists” (Protagonist Therapeutics, Inc., priority 2014, dated 2017).

Numbered stars: 1 amine (or outer) side, 2 acyl side, 3 side chain; on linkers, the order of the positions; unused ones are H or OH. Bridge positions count the residues as written; N and C are the ends. Square brackets hold non-standard residues; d marks the D form. Peptide text beside a SMILES is read from it. I, II: the chains in the order shown. 2Nal = N[C@@H](Cc1ccc2ccccc2c1)C(=O)O; Diglycolyl = O=C(COCC(=O)[*:2])[*:1]; NMeR = CN[C@@H](CCCNC(=N)N)C(=O)O; Pen = CC(C)(S)[C@H](N)C(=O)O Bounds are passed on as bounds.

The target in one data set is α4β7 (Homo sapiens, UniProt P13612+P26010). Briefly: PBMC Memory T Cell Adhesion Assay, adhesion to MAdCAM-1. It counts as cell-based. Particulars: Table 4-B; read-out: Cell Adhesion PBMC IC50. A digest of the protocol: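 Fresh human CD4+/CD45RO+ memory T cells in binding medium with 1 mM MnCl2 were preincubated with compound for 1.5 h at 37° C. on plates coated with Fc-captured MAdCAM-1 (400 ng/well). Adherent cells were read by fluorescence (Ex 485/Em 530). IC50 came from four-parameter nonlinear regression of RFU versus log concentration.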

The nature of data set [1]: Dithiothreitol (DTT) Redox Stability Assay. It is filed as physicochemical. The following applies: Table 4-C, t1/2, 0.5 mM DTT. As for the experimental part:
For each peptide tested, the DTT stability assay was conducted by adding 5 μl of a 10 mM peptide stock solution in DMSO to 1 ml of 100 mM Tris-Cl, pH 7.5 (final peptide concentration is 50 μM). At time 0 min, 5 ul of a freshly thawed 100 mM DTT solution was added to the incubation tube containing the peptide, such that the final DTT concentration was 0.5 mM. The reactions were incubated at room temperature. At different time points up to 120 minutes (20 min, 40 min, 80 min, 120 min), 50 ul aliquots were removed, and the reaction was quenched by adding 10 μl of 5M acetic acid. To measure disappearance of the parent peptide, the quenched samples (30 μl) were analyzed by reverse phase HPLC and UV absorbance at 220 nm. The fraction oxidized remaining was graphed versus time, and half-lives were calculated by fitting to a first-order exponential decay equation using Excel.

Another data set has as its target T1, rh integrin α4β7 (Homo sapiens, UniProt P13612+P26010).
T1 construct: purchased R&D Systems 5397-A30
Description: α4β7-MAdCAM Competition ELISA. It is filed as binding. The following applies: Table 4-B; read-out: ELISA α4β7 IC50. A digest of the protocol: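 Recombinant human α4β7 was captured on nickel plates at 800 ng/well. Peptide in 3-fold serial dilution (final top 10 μM) competed with MAdCAM-1 (final 10 nM) for 1 h at room temperature in 50 mM Tris pH 7.6, 150 mM NaCl, 1 mM MnCl2 or MgCl2. Bound MAdCAM-1 was detected with anti-human IgG1-HRP/TMB at A450.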
For orientation: An ELISA detects its analyte on a solid surface through an enzyme-linked reagent.

T1 sequence (P13612 34-977 limits assumed): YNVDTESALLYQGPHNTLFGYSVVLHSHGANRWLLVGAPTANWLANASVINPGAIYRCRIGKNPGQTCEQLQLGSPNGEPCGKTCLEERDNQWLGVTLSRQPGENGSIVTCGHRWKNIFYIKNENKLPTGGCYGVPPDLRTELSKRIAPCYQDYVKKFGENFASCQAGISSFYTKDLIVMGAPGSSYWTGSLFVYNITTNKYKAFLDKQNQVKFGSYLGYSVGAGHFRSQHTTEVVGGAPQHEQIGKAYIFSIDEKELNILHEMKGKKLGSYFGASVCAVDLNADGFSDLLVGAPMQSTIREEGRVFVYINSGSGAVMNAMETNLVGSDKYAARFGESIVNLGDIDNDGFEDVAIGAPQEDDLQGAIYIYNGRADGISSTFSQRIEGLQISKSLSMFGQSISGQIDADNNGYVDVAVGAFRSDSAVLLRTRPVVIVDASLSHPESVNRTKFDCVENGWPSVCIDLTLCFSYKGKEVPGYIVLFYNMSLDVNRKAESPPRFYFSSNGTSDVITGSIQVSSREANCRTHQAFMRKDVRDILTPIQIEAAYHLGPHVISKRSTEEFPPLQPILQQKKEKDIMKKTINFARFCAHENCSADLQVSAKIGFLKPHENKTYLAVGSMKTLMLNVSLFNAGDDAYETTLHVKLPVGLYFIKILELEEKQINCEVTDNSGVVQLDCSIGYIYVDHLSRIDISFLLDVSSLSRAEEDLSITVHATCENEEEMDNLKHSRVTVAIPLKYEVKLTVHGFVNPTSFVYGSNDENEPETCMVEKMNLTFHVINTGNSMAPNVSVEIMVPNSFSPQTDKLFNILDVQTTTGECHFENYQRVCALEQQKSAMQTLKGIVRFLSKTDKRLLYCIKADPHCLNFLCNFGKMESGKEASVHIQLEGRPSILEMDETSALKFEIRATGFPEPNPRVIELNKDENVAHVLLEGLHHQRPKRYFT
T1 sequence (P26010 20-723 limits assumed): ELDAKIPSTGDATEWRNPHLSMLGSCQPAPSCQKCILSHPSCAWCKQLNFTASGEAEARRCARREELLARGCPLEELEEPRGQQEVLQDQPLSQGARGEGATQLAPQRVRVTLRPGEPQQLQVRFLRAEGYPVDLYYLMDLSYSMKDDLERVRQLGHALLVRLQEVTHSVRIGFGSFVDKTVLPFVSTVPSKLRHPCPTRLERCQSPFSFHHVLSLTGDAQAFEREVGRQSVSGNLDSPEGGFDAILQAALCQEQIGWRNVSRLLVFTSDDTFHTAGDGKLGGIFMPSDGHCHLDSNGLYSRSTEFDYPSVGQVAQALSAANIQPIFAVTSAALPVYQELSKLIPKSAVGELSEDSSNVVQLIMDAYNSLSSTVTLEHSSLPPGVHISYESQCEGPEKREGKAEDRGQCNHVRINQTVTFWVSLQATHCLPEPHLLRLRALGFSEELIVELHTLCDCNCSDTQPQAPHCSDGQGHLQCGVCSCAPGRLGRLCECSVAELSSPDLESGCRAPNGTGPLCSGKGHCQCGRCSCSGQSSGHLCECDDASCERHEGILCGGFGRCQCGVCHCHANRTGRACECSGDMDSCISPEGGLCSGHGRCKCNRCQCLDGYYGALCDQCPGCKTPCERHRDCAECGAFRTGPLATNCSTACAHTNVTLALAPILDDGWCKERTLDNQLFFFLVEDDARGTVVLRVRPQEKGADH
Sequence of α4β7 (P13612 34-1032): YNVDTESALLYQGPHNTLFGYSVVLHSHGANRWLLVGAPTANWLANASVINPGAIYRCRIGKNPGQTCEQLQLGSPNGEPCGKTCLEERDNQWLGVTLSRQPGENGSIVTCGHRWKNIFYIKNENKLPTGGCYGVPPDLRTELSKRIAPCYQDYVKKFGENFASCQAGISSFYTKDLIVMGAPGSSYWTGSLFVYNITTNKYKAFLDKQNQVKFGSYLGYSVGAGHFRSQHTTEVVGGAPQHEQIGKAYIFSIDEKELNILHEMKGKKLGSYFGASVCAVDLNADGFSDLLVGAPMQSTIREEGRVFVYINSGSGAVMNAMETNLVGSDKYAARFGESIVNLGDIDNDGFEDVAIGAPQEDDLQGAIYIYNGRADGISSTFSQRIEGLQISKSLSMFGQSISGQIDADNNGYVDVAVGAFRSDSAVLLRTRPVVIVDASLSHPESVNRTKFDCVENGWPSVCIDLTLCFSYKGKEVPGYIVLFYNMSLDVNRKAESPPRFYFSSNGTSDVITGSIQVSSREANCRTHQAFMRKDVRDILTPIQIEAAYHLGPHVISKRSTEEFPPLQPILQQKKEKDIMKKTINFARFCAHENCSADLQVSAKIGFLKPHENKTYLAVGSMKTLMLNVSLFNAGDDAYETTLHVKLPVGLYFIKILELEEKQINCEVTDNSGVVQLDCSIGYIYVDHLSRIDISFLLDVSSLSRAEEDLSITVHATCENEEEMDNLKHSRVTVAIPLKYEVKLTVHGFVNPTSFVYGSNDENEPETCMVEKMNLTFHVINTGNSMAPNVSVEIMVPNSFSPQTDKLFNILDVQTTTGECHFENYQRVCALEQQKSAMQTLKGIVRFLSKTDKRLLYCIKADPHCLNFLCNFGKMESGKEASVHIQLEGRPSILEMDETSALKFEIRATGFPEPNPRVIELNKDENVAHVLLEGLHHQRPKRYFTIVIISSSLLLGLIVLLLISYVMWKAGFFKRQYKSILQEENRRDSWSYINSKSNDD
Sequence of α4β7 (P26010 20-798): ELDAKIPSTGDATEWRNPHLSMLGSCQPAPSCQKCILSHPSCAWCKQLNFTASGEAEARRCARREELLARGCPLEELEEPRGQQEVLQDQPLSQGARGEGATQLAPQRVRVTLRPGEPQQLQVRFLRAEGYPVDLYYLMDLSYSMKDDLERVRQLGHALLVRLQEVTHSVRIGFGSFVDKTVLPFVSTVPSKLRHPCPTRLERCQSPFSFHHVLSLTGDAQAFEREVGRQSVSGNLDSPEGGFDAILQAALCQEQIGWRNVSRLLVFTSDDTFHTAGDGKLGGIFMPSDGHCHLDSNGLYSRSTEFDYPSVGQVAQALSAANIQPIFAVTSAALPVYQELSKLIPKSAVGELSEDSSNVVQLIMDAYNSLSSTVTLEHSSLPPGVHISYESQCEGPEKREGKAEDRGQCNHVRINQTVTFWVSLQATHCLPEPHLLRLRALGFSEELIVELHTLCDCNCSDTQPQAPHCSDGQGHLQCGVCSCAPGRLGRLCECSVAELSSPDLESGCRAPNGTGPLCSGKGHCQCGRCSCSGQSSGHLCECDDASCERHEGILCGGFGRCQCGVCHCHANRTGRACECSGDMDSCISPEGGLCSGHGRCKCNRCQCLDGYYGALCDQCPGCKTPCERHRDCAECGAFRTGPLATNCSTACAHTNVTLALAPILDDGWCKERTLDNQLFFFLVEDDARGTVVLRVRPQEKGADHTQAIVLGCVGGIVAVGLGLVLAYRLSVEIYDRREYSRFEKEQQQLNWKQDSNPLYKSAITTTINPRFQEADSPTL

For orientation: IC50 means the concentration at which inhibition is half-maximal. On to `CC(=O)N[C@H]1CSSC(C)(C)[C@@H](C(=O)N[C@@H](Cc2c[nH]c3ccccc23)C(=O)N[C@H](CCCCNC(=O)COCC(=O)NCCCC[C@@H](NC(=O)[C@H](Cc2c[nH]c3ccccc23)NC(=O)[C@H]2NC(=O)[C@H](CC(C)C)NC(=O)[C@H]([C@@H](C)O)NC(=O)[C@H](CC(=O)O)NC(=O)[C@H](CO)NC(=O)[C@H](CCCNC(=N)N)N(C)C(=O)[C@@H](NC(C)=O)CSSC2(C)C)C(N)=O)C(N)=O)NC(=O)[C@H](CC(C)C)NC(=O)[C@H]([C@@H](C)O)NC(=O)[C@H](CC(=O)O)NC(=O)[C@H](CO)NC(=O)[C@H](CCCNC(=N)N)N(C)C1=O` [compound 204, (Ac-C-N-Me-R-S-D-T-L-Pen-W-k-NH2)2-DIG] (I: Ac-C[NMeR]SDTL[Pen]W[dK]-NH2 / II: Ac-C[NMeR]SDTL[Pen]W[dK]-NH2; disulfide I:1-I:7, II:1-II:7 (inferred); linker I:9-II:9 via Diglycolyl (inferred)), for which the IC50 stood at 1280 nM on α4β7 and 2 nM on rh integrin α4β7. Besides, in data set [1], the “DTT Min” value turned out to be 27 min.
Consider `CC(=O)N[C@H]1CSSC(C)(C)[C@@H](C(=O)N[C@@H](CCC(=O)O)C(=O)N[C@H](CCCCNC(=O)COCC(=O)NCCCC[C@@H](NC(=O)[C@H](CCC(=O)O)NC(=O)[C@H]2NC(=O)[C@H](CC(C)C)NC(=O)[C@H]([C@@H](C)O)NC(=O)[C@H](CC(=O)O)NC(=O)[C@H](CO)NC(=O)[C@H](CCCNC(=N)N)N(C)C(=O)[C@@H](NC(C)=O)CSSC2(C)C)C(N)=O)C(N)=O)NC(=O)[C@H](CC(C)C)NC(=O)[C@H]([C@@H](C)O)NC(=O)[C@H](CC(=O)O)NC(=O)[C@H](CO)NC(=O)[C@H](CCCNC(=N)N)N(C)C1=O` [compound 205, (Ac-C-N-Me-R-S-D-T-L-Pen-E-k-NH2)2-DIG] (I: Ac-C[NMeR]SDTL[Pen]E[dK]-NH2 / II: Ac-C[NMeR]SDTL[Pen]E[dK]-NH2; disulfide I:1-I:7, II:1-II:7 (inferred); linker I:9-II:9 via Diglycolyl (inferred)), for which, in data set [1], the “DTT Min” value is 42 min. Further, the 50% inhibitory concentration (IC50) at rh integrin α4β7 stood at 2.4 nM.
Regarding `CC(=O)N[C@@H]1C(=O)N[C@@H](CCCNC(=N)N)C(=O)N[C@@H](CO)C(=O)N[C@@H](CC(=O)O)C(=O)N[C@@H]([C@@H](C)O)C(=O)N[C@@H](CC(C)C)C(=O)N[C@H](C(=O)N[C@H](CCCCNC(=O)COCC(=O)NCCCC[C@@H](NC(=O)[C@@H]2CSSC(C)(C)[C@H](NC(C)=O)C(=O)N[C@@H](CCCNC(=N)N)C(=O)N[C@@H](CO)C(=O)N[C@@H](CC(=O)O)C(=O)N[C@@H]([C@@H](C)O)C(=O)N[C@@H](CC(C)C)C(=O)N2)C(N)=O)C(N)=O)CSSC1(C)C` [compound 207, (Ac-Pen-R-S-D-T-L-C-k-NH2)2-DIG] (I: Ac-[Pen]RSDTLC[dK]-NH2 / II: Ac-[Pen]RSDTLC[dK]-NH2; disulfide I:1-I:7, II:1-II:7 (inferred); linker I:8-II:8 via Diglycolyl (inferred)), the “DTT Min” value in data set [1] amounted to 35 min. On rh integrin α4β7, the half-inhibitory concentration (IC50) was found to be 26 nM.
The like results for `CC(=O)N[C@@H]1C(=O)N(C)[C@@H](CCCNC(=N)N)C(=O)N[C@@H](CO)C(=O)N[C@@H](CC(=O)O)C(=O)N[C@@H]([C@@H](C)O)C(=O)N[C@@H](CC(C)C)C(=O)N[C@H](C(=O)N[C@@H](Cc2c[nH]c3ccccc23)C(=O)N[C@H](CCCCN)C(N)=O)C(C)(C)SSC1(C)C` [compound 208, Ac-Pen-N-Me-R-S-D-T-L-Pen-W-k-NH2] (Ac-[Pen][NMeR]SDTL[Pen]W[dK]-NH2; disulfide 1-7) were, in that order, greater than 120 min and 30.5 nM.
Turning to `CC(=O)N[C@@H]1C(=O)N(C)[C@@H](CCCNC(=N)N)C(=O)N[C@@H](CO)C(=O)N[C@@H](CC(=O)O)C(=O)N[C@@H]([C@@H](C)O)C(=O)N[C@@H](CC(C)C)C(=O)N[C@H](C(=O)N[C@@H](Cc2c[nH]c3ccccc23)C(=O)N[C@H](CCCCNC(=O)COCC(=O)NCCCC[C@@H](NC(=O)[C@H](Cc2c[nH]c3ccccc23)NC(=O)[C@H]2NC(=O)[C@H](CC(C)C)NC(=O)[C@H]([C@@H](C)O)NC(=O)[C@H](CC(=O)O)NC(=O)[C@H](CO)NC(=O)[C@H](CCCNC(=N)N)N(C)C(=O)[C@@H](NC(C)=O)C(C)(C)SSC2(C)C)C(N)=O)C(N)=O)C(C)(C)SSC1(C)C` [compound 209, (Ac-Pen-N-Me-R-S-D-T-L-Pen-W-k-NH2)2-DIG] (I: Ac-[Pen][NMeR]SDTL[Pen]W[dK]-NH2 / II: Ac-[Pen][NMeR]SDTL[Pen]W[dK]-NH2; disulfide I:1-I:7, II:1-II:7 (inferred); linker I:9-II:9 via Diglycolyl (inferred)), the values for the IC50 on α4β7 and at rh integrin α4β7 were 260 nM and 2.3 nM, respectively. Moreover, the “DTT Min” value in data set [1] was greater than 120 min.
Turning to `CC(=O)N[C@@H]1C(=O)N(C)[C@@H](CCCNC(=N)N)C(=O)N[C@@H](CO)C(=O)N[C@@H](CC(=O)O)C(=O)N[C@@H]([C@@H](C)O)C(=O)N[C@@H](CC(C)C)C(=O)N[C@H](C(=O)N[C@@H](Cc2ccc3ccccc3c2)C(=O)N[C@@H](CCC(=O)O)C(=O)N[C@H](CCCCN)C(N)=O)C(C)(C)SSC1(C)C` [compound 210, Ac-Pen-N-Me-R-S-D-T-L-Pen-2-Nal-E-k-NH2] (Ac-[Pen][NMeR]SDTL[Pen][2Nal]E[dK]-NH2; disulfide 1-7), in data set [1], the “DTT Min” value was greater than 120 min. For the same molecule, the IC50 at rh integrin α4β7 stood at 11 nM.
With `CC(=O)N[C@@H]1C(=O)N(C)[C@@H](CCCNC(=N)N)C(=O)N[C@@H](CO)C(=O)N[C@@H](CC(=O)O)C(=O)N[C@@H]([C@@H](C)O)C(=O)N[C@@H](CC(C)C)C(=O)N[C@H](C(=O)N[C@@H](Cc2c[nH]c3ccccc23)C(=O)N[C@H](CCC(=O)O)C(=O)N[C@H](CCCCNC(=O)COCC(=O)NCCCC[C@@H](NC(=O)[C@@H](CCC(=O)O)NC(=O)[C@H](Cc2c[nH]c3ccccc23)NC(=O)[C@H]2NC(=O)[C@H](CC(C)C)NC(=O)[C@H]([C@@H](C)O)NC(=O)[C@H](CC(=O)O)NC(=O)[C@H](CO)NC(=O)[C@H](CCCNC(=N)N)N(C)C(=O)[C@@H](NC(C)=O)C(C)(C)SSC2(C)C)C(N)=O)C(N)=O)C(C)(C)SSC1(C)C` [compound 211, (Ac-Pen-N-Me-R-S-D-T-L-Pen-W-e-k-NH2)2-DIG] (I: Ac-[Pen][NMeR]SDTL[Pen]W[dE][dK]-NH2 / II: Ac-[Pen][NMeR]SDTL[Pen]W[dE][dK]-NH2; disulfide I:1-I:7, II:1-II:7 (inferred); linker I:10-II:10 via Diglycolyl (inferred)), the “DTT Min” value in data set [1] is greater than 120 min. Besides, at rh integrin α4β7, the IC50 is 3 nM.
For `CC(=O)N[C@@H]1C(=O)N(C)[C@@H](CCCNC(=N)N)C(=O)N[C@@H](CO)C(=O)N[C@@H](CC(=O)O)C(=O)N[C@@H]([C@@H](C)O)C(=O)N[C@@H](CC(C)C)C(=O)N[C@H](C(=O)N[C@@H](Cc2ccc3ccccc3c2)C(=O)N[C@@H](CCC(=O)O)C(=O)N[C@H](CCCCNC(=O)COCC(=O)NCCCC[C@@H](NC(=O)[C@H](CCC(=O)O)NC(=O)[C@H](Cc2ccc3ccccc3c2)NC(=O)[C@H]2NC(=O)[C@H](CC(C)C)NC(=O)[C@H]([C@@H](C)O)NC(=O)[C@H](CC(=O)O)NC(=O)[C@H](CO)NC(=O)[C@H](CCCNC(=N)N)N(C)C(=O)[C@@H](NC(C)=O)C(C)(C)SSC2(C)C)C(N)=O)C(N)=O)C(C)(C)SSC1(C)C` [compound 212, (Ac-Pen-N-Me-R-S-D-T-L-Pen-2-Nal-E-k-NH2)2-DIG] (I: Ac-[Pen][NMeR]SDTL[Pen][2Nal]E[dK]-NH2 / II: Ac-[Pen][NMeR]SDTL[Pen][2Nal]E[dK]-NH2; disulfide I:1-I:7, II:1-II:7 (inferred); linker I:10-II:10 via Diglycolyl (inferred)), the “DTT Min” value in data set [1] was greater than 120 min. Moreover, the half-inhibitory concentration (IC50) on rh integrin α4β7 is 2 nM.
Regarding `CC(=O)N[C@@H]1C(=O)N(C)[C@@H](CCCNC(=N)N)C(=O)N[C@@H](CO)C(=O)N[C@@H](CC(=O)O)C(=O)N[C@@H]([C@@H](C)O)C(=O)N[C@@H](CC(C)C)C(=O)N[C@H](C(=O)N[C@@H](Cc2c[nH]c3ccccc23)C(=O)N[C@@H](CCC(=O)O)C(=O)N[C@H](CCCCNC(=O)COCC(=O)NCCCC[C@@H](NC(=O)[C@H](CCC(=O)O)NC(=O)[C@H](Cc2c[nH]c3ccccc23)NC(=O)[C@H]2NC(=O)[C@H](CC(C)C)NC(=O)[C@H]([C@@H](C)O)NC(=O)[C@H](CC(=O)O)NC(=O)[C@H](CO)NC(=O)[C@H](CCCNC(=N)N)N(C)C(=O)[C@@H](NC(C)=O)C(C)(C)SSC2(C)C)C(N)=O)C(N)=O)C(C)(C)SSC1(C)C` [compound 217, (Ac-Pen-N-Me-R-S-D-T-L-Pen-W-E-k-NH2)2-DIG] (I: Ac-[Pen][NMeR]SDTL[Pen]WE[dK]-NH2 / II: Ac-[Pen][NMeR]SDTL[Pen]WE[dK]-NH2; disulfide I:1-I:7, II:1-II:7 (inferred); linker I:10-II:10 via Diglycolyl (inferred)), the “DTT Min” value in data set [1] was greater than 120 min. For the same molecule, at rh integrin α4β7, the half-maximal inhibitory concentration (IC50) stood at 2.3 nM.
